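Interpolation was linear, between the two tested concentrations surrounding the appropriate level; five concentrations were tested over 48 hours in 96-well plates. TGI: total growth inhibition.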
Experiments:
Assay in all cases: growth of human tumour cells (NCI), 48 h
786-0 renal = system: 786-0 renal
A498 renal = system: A498 renal
A549 NSCLC = system: A549 NSCLC
ACHN renal = system: ACHN renal
BT-549 breast = system: BT-549 breast
CCRF-CEM leukemia = system: CCRF-CEM leukemia
COLO 205 colon = system: COLO 205 colon
DU-145 prostate = system: DU-145 prostate
EKVX NSCLC = system: EKVX NSCLC
HCC-2998 colon = system: HCC-2998 colon
HCT-116 colon = system: HCT-116 colon
HCT-15 colon = system: HCT-15 colon
HOP-62 NSCLC = system: HOP-62 NSCLC
HOP-92 NSCLC = system: HOP-92 NSCLC
HS 578T breast = system: HS 578T breast
HT29 colon = system: HT29 colon
IGROV1 ovarian = system: IGROV1 ovarian
LOX IMVI melanoma = system: LOX IMVI melanoma
M14 melanoma = system: M14 melanoma
MALME-3M melanoma = system: MALME-3M melanoma
MCF7 breast = system: MCF7 breast
MDA-MB-231 breast = system: MDA-MB-231 breast
MDA-N = system: MDA-N
NCI-H226 lung = system: NCI-H226 lung
NCI-H23 lung = system: NCI-H23 lung
NCI-H460 lung = system: NCI-H460 lung
NCI-H522 lung = system: NCI-H522 lung
NCI/ADR-RES ovarian = system: NCI/ADR-RES ovarian
OVCAR-5 ovarian = system: OVCAR-5 ovarian
OVCAR-8 ovarian = system: OVCAR-8 ovarian
PC-3 prostate = system: PC-3 prostate
RXF 393 renal = system: RXF 393 renal
SF-268 CNS = system: SF-268 CNS
SF-295 CNS = system: SF-295 CNS
SK-MEL-2 melanoma = system: SK-MEL-2 melanoma
SK-MEL-28 melanoma = system: SK-MEL-28 melanoma
SK-MEL-5 melanoma = system: SK-MEL-5 melanoma
SK-OV-3 ovarian = system: SK-OV-3 ovarian
SN12C renal = system: SN12C renal
SNB-19 CNS = system: SNB-19 CNS
SNB-75 CNS = system: SNB-75 CNS
SW-620 colon = system: SW-620 colon
T-47D breast = system: T-47D breast
TK-10 renal = system: TK-10 renal
U251 CNS = system: U251 CNS
UACC-257 melanoma = system: UACC-257 melanoma
UACC-62 melanoma = system: UACC-62 melanoma
UO-31 renal = system: UO-31 renal
CAKI-1 renal = system: CAKI-1 renal
HL-60(TB) leukemia = system: HL-60(TB) leukemia
K-562 leukemia = system: K-562 leukemia
KM12 colon = system: KM12 colon
MDA-MB-435 = system: MDA-MB-435
MOLT-4 leukemia = system: MOLT-4 leukemia
OVCAR-3 ovarian = system: OVCAR-3 ovarian
OVCAR-4 ovarian = system: OVCAR-4 ovarian
RPMI-8226 leukemia = system: RPMI-8226 leukemia
SR leukemia = system: SR leukemia
SF-539 CNS = system: SF-539 CNS

Measured: TGI

CCC1CCN=C(Cn2cc(C)c(=O)[nH]c2=O)N1 (configuration not stated)
> 100 µM: 786-0 renal | A498 renal | A549 NSCLC | ACHN renal | BT-549 breast | CCRF-CEM leukemia | COLO 205 colon | DU-145 prostate | EKVX NSCLC | HCC-2998 colon | HCT-116 colon | HCT-15 colon | HOP-62 NSCLC | HOP-92 NSCLC | HS 578T breast | HT29 colon | IGROV1 ovarian | LOX IMVI melanoma | M14 melanoma | MALME-3M melanoma | MCF7 breast | MDA-MB-231 breast | MDA-N | NCI-H226 lung | NCI-H23 lung | NCI-H460 lung | NCI-H522 lung | NCI/ADR-RES ovarian | OVCAR-5 ovarian | OVCAR-8 ovarian | PC-3 prostate | RXF 393 renal | SF-268 CNS | SF-295 CNS | SK-MEL-2 melanoma | SK-MEL-28 melanoma | SK-MEL-5 melanoma | SK-OV-3 ovarian | SN12C renal | SNB-19 CNS | SNB-75 CNS | SW-620 colon | T-47D breast | TK-10 renal | U251 CNS | UACC-257 melanoma | UACC-62 melanoma | UO-31 renal

Oc1ccc2c3c1OC1c4[nH]c5c(c4CC4(O)C(C2)N(CC2CC2)CC[C@]314)CC1(O)C2Cc3ccc(O)c4c3[C@@]1(CCN2CC1CC1)C5O4 (some centres not stated)
63.9 µM: K-562 leukemia
> 100 µM: ACHN renal | BT-549 breast | CAKI-1 renal | DU-145 prostate | HCT-15 colon | HOP-62 NSCLC | IGROV1 ovarian | MCF7 breast | NCI-H23 lung | NCI/ADR-RES ovarian | OVCAR-8 ovarian | PC-3 prostate | SK-MEL-5 melanoma | SK-OV-3 ovarian | SN12C renal | UO-31 renal
64 µM: SNB-19 CNS
35.6 µM: COLO 205 colon
57.5 µM: SR leukemia
36.7 µM: HCC-2998 colon
49.4 µM: SF-268 CNS
38.3 µM: HT29 colon
60.8 µM: RPMI-8226 leukemia
49.3 µM: NCI-H522 lung
46.1 µM: MDA-MB-231 breast
44.8 µM: SK-MEL-2 melanoma
32 µM: M14 melanoma
37.4 µM: UACC-257 melanoma
53.9 µM: MOLT-4 leukemia
35.8 µM: OVCAR-3 ovarian
46 µM: 786-0 renal
32.2 µM: KM12 colon
53.8 µM: SW-620 colon
38.9 µM: MDA-N
44.6 µM: TK-10 renal
41.4 µM: HL-60(TB) leukemia | SK-MEL-28 melanoma
74.9 µM: OVCAR-5 ovarian
43.7 µM: UACC-62 melanoma
88.7 µM: NCI-H226 lung
90.5 µM: OVCAR-4 ovarian
85 µM: HOP-92 NSCLC
37.6 µM: A549 NSCLC | MDA-MB-435
82.2 µM: RXF 393 renal
34.6 µM: U251 CNS
99.3 µM: EKVX NSCLC
47.6 µM: T-47D breast
83.2 µM: LOX IMVI melanoma
32.4 µM: A498 renal
31.6 µM: MALME-3M melanoma
40 µM: SF-295 CNS
33 µM: HCT-116 colon

O=C(Nc1ccc(F)cc1)c1cc2ccc(O)cc2oc1=Nc1cccc(F)c1
55.7 µM: NCI-H23 lung
64.4 µM: EKVX NSCLC
75.4 µM: BT-549 breast
52.6 µM: LOX IMVI melanoma
71.8 µM: CCRF-CEM leukemia
49.7 µM: IGROV1 ovarian
41.6 µM: OVCAR-8 ovarian
83 µM: HL-60(TB) leukemia
92.2 µM: HCT-15 colon
35.6 µM: SK-MEL-5 melanoma
97.5 µM: NCI-H522 lung
> 100 µM: 786-0 renal | A498 renal | ACHN renal | CAKI-1 renal | COLO 205 colon | DU-145 prostate | HCC-2998 colon | HCT-116 colon | HOP-62 NSCLC | HT29 colon | K-562 leukemia | KM12 colon | MALME-3M melanoma | MCF7 breast | MDA-MB-435 | MDA-N | MOLT-4 leukemia | NCI-H460 lung | NCI/ADR-RES ovarian | OVCAR-3 ovarian | OVCAR-4 ovarian | OVCAR-5 ovarian | PC-3 prostate | RPMI-8226 leukemia | SF-268 CNS | SF-295 CNS | SF-539 CNS | SK-MEL-2 melanoma | SK-MEL-28 melanoma | SK-OV-3 ovarian | SN12C renal | SR leukemia | SW-620 colon | T-47D breast | U251 CNS | UACC-257 melanoma | UACC-62 melanoma

CCC(C)(C)c1ccc(Oc2cccc(C(=O)O)c2)cc1
65.4 µM: RPMI-8226 leukemia
89.9 µM: NCI-H522 lung
> 100 µM: 786-0 renal | A498 renal | A549 NSCLC | ACHN renal | BT-549 breast | CAKI-1 renal | COLO 205 colon | DU-145 prostate | EKVX NSCLC | HCC-2998 colon | HCT-116 colon | HCT-15 colon | HL-60(TB) leukemia | HOP-62 NSCLC | HS 578T breast | HT29 colon | IGROV1 ovarian | K-562 leukemia | KM12 colon | LOX IMVI melanoma | M14 melanoma | MALME-3M melanoma | MCF7 breast | MDA-MB-231 breast | MDA-MB-435 | MDA-N | NCI-H226 lung | NCI-H23 lung | NCI-H460 lung | NCI/ADR-RES ovarian | OVCAR-4 ovarian | OVCAR-5 ovarian | OVCAR-8 ovarian | PC-3 prostate | RXF 393 renal | SF-268 CNS | SF-295 CNS | SF-539 CNS | SK-MEL-2 melanoma | SK-MEL-28 melanoma | SK-MEL-5 melanoma | SK-OV-3 ovarian | SN12C renal | SNB-19 CNS | SNB-75 CNS | SW-620 colon | T-47D breast | TK-10 renal | U251 CNS | UACC-257 melanoma | UACC-62 melanoma | UO-31 renal
70.1 µM: OVCAR-3 ovarian
70.7 µM: MOLT-4 leukemia
68 µM: CCRF-CEM leukemia
